Measurements taken from the METLIN SMRT retention time set (Domingo-Almenara et al. 2019).

Experiment: gradient 5% acetonitrile 3 min, to 50% in 2 min, to 85% in 15 min, held 3 min, 100 µL/min
Conditions: column: Zorbax Extend-C18 2.1 x 50 mm; eluents: water / acetonitrile, 0.1% formic acid
Summary of the method: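 Each retention time is based on an adduct peak selected computationally and verified by manual inspection. Measurements used HPLC–quadrupole time-of-flight mass spectrometry in positive and negative ionization mode on mixtures of ~100 pure standards. Chromatography ran on a Zorbax Extend-C18 column (2.1 × 50 mm, 1.8 μm) at 100 μL/min with water and acetonitrile, each containing 0.1% formic acid, and dead and dwell volumes of 40 μL and 900 μL.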

Compound | RP-LC retention time
CCOc1ccc(C(=O)N2CCN(c3cc(-c4cccs4)[nH]n3)CC2)cc1 | 812 s
CCN1CCC(Nc2ccnc3cc(Cl)ccc23)CC1 | 588 s
CCC(C)NC(=O)C1(c2ccc(NS(=O)(=O)CC)cc2)CCCCC1 (configuration not stated) | 887 s
CSc1cccc(NC(=O)c2cnc(-c3ccc(C)cc3)nc2-c2ccncc2)c1 | 1010 s
N#Cc1ccc(C(=O)NC2CC(=O)N(Cc3ccccc3)C2)cc1 (configuration not stated) | 768 s
Cc1ccsc1C(=O)NC1CCc2nnc(C3CC3)n2CC1 (configuration not stated) | 587 s
COc1cccc(S(=O)(=O)N2[C@H]3CC[C@@H]2c2cnc(C)nc2C3)c1 | 692 s
Cc1cc2nc(-c3ccccn3)c(-c3ccccn3)nc2cc1C | 797 s
Cc1ccc2c(c1)N(C(=O)Cn1ncn3c(C)c(C(=O)NCc4ccccc4)c(C)c3c1=O)CCO2 | 886 s
CCOCCCNC(=O)N1c2ccccc2CC1c1nc(C(C)C)no1 (configuration not stated) | 901 s
CCN(CC)C(=O)c1ccc(-c2nc3cc(NS(=O)(=O)c4ccc(F)cc4F)ccc3n2C)cc1 | 710 s
Cc1ccc(-c2ncc(NC(=O)C3CCC3)cn2)cc1 | 941 s
Clc1ccc(-c2nc3ccccn3c2Nc2ccc3c(c2)OCO3)cc1 | 727 s
CN(c1nc(-c2ccc([N+](=O)[O-])cc2)nc2ccccc12)C1CCCCC1 | 993 s
COc1ccc(-c2nc3cccc(C)n3c2Nc2ccc(C)cc2)cc1 | 757 s
Cc1ccc(NC(=O)CN2C(=O)NC3(CCCCC3)C2=O)cc1F | 798 s
O=C(NCCc1ccccn1)C1CC(=O)N(c2n[nH]c3cc(Br)ccc23)C1 (configuration not stated) | 600 s
CC(=O)N1CCc2cc(N3CC(C(=O)Nc4cccc(Cl)c4C)CC3=O)ccc21 (configuration not stated) | 723 s
CC(C)NC(=O)C1CCCN(c2nc3ncn(CC(=O)Nc4ccc5c(c4)OCO5)c(=O)c3s2)C1 (configuration not stated) | 678 s
COc1ccc(OC)c(NC(=O)c2cc(C)n3nc(-c4ccco4)cc3n2)c1 | 1160 s
Cc1ccc(CNC(=O)CN2C(=O)CCn3nc(-c4cn(C)c5ccccc45)cc32)o1 | 806 s
N#Cc1ccc(-c2nc(-c3ccc4c(c3)nnn4CCC(=O)N3CCOCC3)no2)cc1 | 786 s

Compound | RP-LC retention time
O=C(CN1C(=O)NC2(CCCCC2)C1=O)Nc1ccc(Br)cc1F | 826 s
Cn1cc(-c2nc(C(=O)Nc3cccc(C#N)c3)cs2)c2cccnc21 | 946 s
Cc1cc(=O)n(CC(=O)Nc2ccc(Br)cc2F)c(N(C)Cc2ccccc2)n1 | 862 s
COc1ccc(-c2nc(C3CC(=O)N(c4ccc(Cl)cc4)C3)no2)cc1 (configuration not stated) | 1060 s
CCn1ccc(NC(=O)c2cc(C)ccc2C)n1 | 733 s
Cc1ccccc1S(=O)(=O)N1CCC(c2nc(C(=O)N(C)C)c(C)o2)CC1 | 818 s
O=c1c2cc(-c3ccc4c(c3)OCO4)nn2ccn1Cc1nc(-c2ccc(F)c(Cl)c2)no1 | 805 s
CN(C)CCCNC(=O)C1CCN(c2nc3ccc(-c4ccccc4F)nc3s2)CC1 | 649 s
COc1ccc(NC(=O)c2ccc(-n3cnc(NC(=O)C4CC4)c3)cc2)c(OC)c1 | 726 s
CCC1Oc2ccc(S(=O)(=O)N3CCC(C(=O)N(C)c4cccc(C)c4)CC3)cc2NC1=O (configuration not stated) | 872 s
CCOC(=O)c1c(C)[nH]c(CCC(=O)NCCN2CCCCC2C)c1C (configuration not stated) | 618 s
COc1ccc(C2C(C(=O)O)c3ccccc3C(=O)N2C)cc1 (configuration not stated) | 688 s
COC[C@@H]1OCCN(S(=O)(=O)c2cc(OC)ccc2OC)[C@H]1c1ccccc1 | 896 s
CCOC(=O)c1[nH]c(C)c(CCC(=O)N2CCC(C(=O)NCC3CCCO3)CC2)c1C (configuration not stated) | 670 s
CC(C)c1noc(-c2cc(=O)n(CC(=O)NCc3ccc(Cl)cc3)c3ccccc23)n1 | 1020 s
CCN1CCCN(C(=O)C2(c3ccc(OC)cc3)CC2)CC12CCOCC2 | 620 s
Cc1cc(C)c(Cn2cnc3ccccc32)c(C)c1 | 611 s
CCS(=O)(=O)Nc1ccc(C2(C(=O)NC(C)c3ccccc3)CCCCC2)cc1 (configuration not stated) | 976 s
N#Cc1ccsc1NC(=O)C1CCN(S(=O)(=O)c2ccc(Cl)s2)CC1 | 906 s
NC(=O)c1c(NC(=O)C2CCCN(C(=O)c3ccc4c(c3)OCCO4)C2)sc2c1CCCC2 (configuration not stated) | 839 s
CCC(CC)C(c1ccc(Nc2nc3ccccc3s2)cc1)n1cncn1 (configuration not stated) | 1150 s
COc1ccc(C(=O)NCCc2sc(-c3cccc(F)c3)nc2C)c(OC)c1 | 921 s

Compound | RP-LC retention time
COc1cccc(Nc2c(C(N)=O)cnc3c(C)cc(S(=O)(=O)c4cccc(C(=O)N(C)C)c4)cc23)c1 | 683 s
CCOc1ccc(-c2noc(Cn3nc(-c4ccc(C)cc4)ccc3=O)n2)cc1 | 1160 s
Cc1ccc(-c2csc(-n3nc(C)c(CC(=O)Nc4c(C)cccc4C)c3C)n2)cc1 | 1190 s
Cc1cccc(-c2noc(C3CCCN3C(=O)Nc3ccccc3)n2)c1 (configuration not stated) | 980 s
Cc1ccc(NC(=O)Cn2c(-c3cnccn3)nc(C)c(C)c2=O)cc1Cl | 842 s
Cc1sc(-c2ccn[nH]2)cc1NC(=O)c1cccc(N(C)C)c1 | 995 s
Cc1cccc(OCc2nc(-c3ccc(-c4csc(C5CC5)n4)cc3)no2)c1 | 784 s
O=C(C1CCCN(c2ccc(-c3ccccc3)nn2)C1)N1CCN(c2ccccc2F)CC1 (configuration not stated) | 788 s
Cc1ccc2oc(=O)n(Cc3noc(C(=O)NCCC4=CCCCC4)n3)c2c1 | 1090 s
O=C(NCCc1cccs1)C1CCN(C(=O)c2ncn3c2COC(c2ccc(F)cc2)C3)CC1 (configuration not stated) | 774 s
O=C(CN1C(=O)C2CCCCN2c2ccc(S(=O)(=O)N3CCCC3)cc21)NCc1cccs1 (configuration not stated) | 882 s
CC(C)N1CCN(Cc2nc(-c3ccc(N4CCSCC4)nc3)no2)CC1 | 614 s
CCC(c1cccs1)N1C(=O)[C@H]2CN(S(=O)(=O)Cc3ccccc3F)C[C@H]2C1=O (some centres not stated) | 1000 s
Cc1ccc(NC(=O)N2CCCC2c2nc(-c3ccccc3)no2)c(Cl)c1 (configuration not stated) | 1100 s
CC1CCc2nn(CC(=O)Nc3cc(F)ccc3F)cc2C1 (configuration not stated) | 983 s
O=C(Nc1ccc(F)c(F)c1)C1CCCN(c2nc3ccsc3c(=O)n2Cc2ccc(F)cc2)C1 (configuration not stated) | 1050 s
Cc1nn(C(C)C(=O)NCc2ccco2)c(=O)c2nn(-c3ccccc3)c(C)c12 (configuration not stated) | 761 s
COc1ccc(OCC(=O)N2CCN(c3cc(C(C)C)n4cnnc4n3)CC2)cc1 | 619 s
Cc1ccc(CN2N=C(C(=O)N3CCCC3)S(=O)(=O)c3ccccc32)cc1 | 895 s
CCc1ccc(C(=O)Nc2nnc(SCc3nnc(-c4ccccc4)o3)s2)cc1 | 1000 s
CCCNC(=O)C1CCCN(c2ccc(SCC(=O)Nc3ccc(C)cc3)nn2)C1 (configuration not stated) | 686 s
CCNC(=O)c1n[nH]c2c1CN(C(=O)c1cc(F)cc(F)c1)CC2 | 634 s

Compound | RP-LC retention time
O=S(=O)(c1ccccc1Cl)N1CCN(c2ccc(Nc3ccccn3)nn2)CC1 | 593 s
COC(=O)c1c(-c2ccc(F)cc2)noc1NCCc1cccs1 | 1090 s
CCC(=O)N1CCc2c(sc3ncnc(N4CCN(C)CC4)c23)C1 | 546 s
COc1ccc(-c2cc(N3CCN(C(=O)Nc4ccc(OC)cc4OC)CC3)ncn2)cc1 | 663 s
Cc1cc(Nc2ccccc2)nc(N2CCN(C(=O)Nc3ccc(Cl)cc3)CC2)n1 | 761 s
CCCn1cc(S(=O)(=O)Nc2cccc(F)c2)c2cccnc21 | 883 s
CC(CC(=O)O)CC(=O)Nc1nc(-c2ccccc2)c(-c2ccccc2)s1 (configuration not stated) | 927 s
COc1cccc(-n2c(N3CCCC(C(=O)NCC4CC4)C3)nc3ccsc3c2=O)c1 (configuration not stated) | 771 s
O=C(NCc1ccccc1)N1CCN(c2ncccc2-c2nnc(C3CC3)o2)CC1 | 738 s
Cc1cc(C(=O)Nc2cccn3c(C4CCC4)nnc23)no1 | 724 s
O=C(Nc1cccc(-c2ccc(N3CCOCC3)nn2)c1)Nc1ccc2c(c1)OCCO2 | 659 s
COc1cccc(Cn2nnc(C(=O)O)c2C)c1 | 666 s
CCNc1ncnc2sc3c(c12)CCN(C(=O)COC)C3 | 601 s
Cc1cc(C)cc(-c2nc(C3CC(=O)N(c4ccc(F)cc4)C3)no2)c1 (configuration not stated) | 1060 s
Cc1ccc(-c2cc3c4nnc(SCC(=O)Nc5cccc(Cl)c5)n4ccn3n2)cc1C | 1060 s
COc1cc(CNC(=O)COc2ccc(NC(=O)C3CC3)cn2)cc(OC)c1 | 713 s
COc1ccc(-c2n[nH]c3c2C(c2ccc(OC)cc2OC)NC3=O)cc1 (configuration not stated) | 736 s
Cc1[nH]ncc1CNC(=O)C1CCN(C(=O)c2ncn3c2COC(c2ccc(F)cc2)C3)CC1 (configuration not stated) | 626 s
Cc1nn(-c2ccc(F)cc2)c(C)c1S(=O)(=O)N1CCC(C(=O)Nc2ccccc2F)CC1 | 949 s
Cc1cc(Cl)ccc1NC(=O)c1cc(C2CC2)on1 | 1040 s
COc1ccc(S(=O)(=O)N2CCC[C@@H]2C(=O)NCc2csc(C)n2)cc1OC | 662 s
